Source: patent US10233195B2, “Anti-fibrotic pyridinones” (InterMune, Inc., priority 2014, dated 2019)

Tests used:
[1] = test system: Fibroblasts (primary human lung and dermal, HFL-1, 3T3 etc); assay: Cell proliferation assay (BrdU incorporation); type: cell-based; conditions: HFL1, stimulant (LPA, TGFb, serum etc), 50% inhibition of the increase of BrdU incorporation
Description: Assay of Inhibitory Effect on Cell Proliferation (BrdU Incorporation)
Fibroblasts (primary human lung and dermal, HFL-1, 3T3 etc) were plated on a 96-well plate and serum starved for 24-48 hours. The media were then exchanged for media containing stimulants (LPA, TGFb, serum etc) and cultured further for 16-24 hours before BrdU addition. After culturing for another 8 hours, cells were washed with PBS and the amount of BrdU incorporated into the cells was assayed by absorbance at 450 nm using the Cell proliferation ELISA system (RPN250, Amersham LIFE SCIENCE). The difference between the amount of BrdU incorporated in the stimulant-added well and the amount of BrdU incorporated in the well containing no stimulant represented the amount of BrdU incorporation accelerated by stimulant. The increase of BrdU incorporation without the addition of test compounds was set as 100% and the concentration of compound with 50% inhibition in the increase of BrdU incorporation (IC50 value) was determined. The test compounds were added 0-30 min before stimulant addition.
Compounds of some embodiments were prepared according to synthetic methods described herein and assay data obtained for IC50 for BrdU inhibition. The assay data obtained is presented in Table 3, in which A=less than 50 μM, B=greater than or equal to 50 μM and less than or equal to 200 μM; and C=greater than 200 μM.

[2] = test system: TGF-b induced Endothelin-1 production; assay: ET-1 assay: inhibitory effect on TGF-b induced endothelin-1 production; type: cell-based; conditions: Homo sapiens, Fibroblast; fibroblasts, stimulant (TGFb, serum, LPA etc), ET-1 in media by ELISA, 4-parameter fit
Outline: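 Fibroblasts (primary human lung/dermal, HFL-1, 3T3) serum-starved 0-48 h, preincubated ~30 min with compound, then stimulated (TGFb, serum or LPA) for 16-48 h. Secreted ET-1 measured by ELISA; EC50 from 4-parameter logistic fit, with CC50 from ATPlite in the same wells.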

SMILES | IC50 [1] | EC50 [2]
CC(=O)c1ccc(=O)n(-c2ccc(F)cc2)c1 [Compound 13] | > 200 µM | > 200 µM
COCCOCCOCCOc1ccc(-n2cc(C(C)=O)ccc2=O)cc1 [Compound 21] | > 200 µM | > 200 µM
O=c1ccc2c(n1-c1ccc(OC(F)(F)F)cc1)CCC2 [Compound 28] | 50 to 200 µM | 50 to 200 µM
Cc1cn(-c2ccccc2)c(=O)c2c1CCCC2 [Compound 29] | > 200 µM | 50 to 200 µM
Cn1cc(-c2cn(-c3ccccc3)c(=O)c3c2CCCC3)cn1 [Compound 31] | 50 to 200 µM | < 50 µM
Cn1cc(-c2cn(-c3ccc(OC(F)(F)F)cc3)c(=O)c3nsnc23)cn1 [Compound 41] | < 50 µM | –
Cn1cc(-c2cn(-c3ccc(OC(F)(F)F)cc3)c(=O)c3cccnc23)cn1 [Compound 43] | > 200 µM | < 50 µM
O=c1c2nccnc2c(-c2ccc(F)cc2)cn1-c1ccc(OC(F)(F)F)cc1 [Compound 46] | < 50 µM | < 50 µM
Cn1cc(-c2cn(-c3ccc(OC(F)(F)F)cc3)c(=O)c3nccnc23)cn1 [Compound 47] | < 50 µM | < 50 µM
Cc1cn(C)c2c(=O)n(-c3ccc(OC(F)(F)F)cc3)cc(-c3ccc(F)cc3)c12 [Compound 49] | < 50 µM | < 50 µM
Cn1cc(-c2cn(-c3ccc(OC(F)(F)F)cc3)c(=O)c3c2OCC(=O)N3Cc2ccccc2)cn1 [Compound 50] | < 50 µM | > 200 µM
O=C1COc2c(-c3ccc(F)cc3)cn(-c3ccc(OC(F)(F)F)cc3)c(=O)c2N1Cc1ccccc1 [Compound 51] | > 200 µM | > 200 µM
O=C1COc2c(-c3ccc(F)cc3)cn(-c3ccc(OC(F)(F)F)cc3)c(=O)c2N1 [Compound 52] | > 200 µM | > 200 µM
CN1C(=O)COc2c(-c3ccc(F)cc3)cn(-c3ccc(OC(F)(F)F)cc3)c(=O)c21 [Compound 53] | > 200 µM | > 200 µM
Cn1cnc2c(-c3ccc(F)cc3)cn(-c3ccc(OC(F)(F)F)cc3)c(=O)c21 [Compound 58] | < 50 µM | < 50 µM
Cn1cc(-c2cn(-c3ccc(OC(F)(F)F)cc3)c(=O)c3ncn(C)c23)cn1 [Compound 59] | < 50 µM | < 50 µM
CCn1ccc2c(-c3cnn(C)c3)cn(-c3ccc(OC(F)(F)F)cc3)c(=O)c21 [Compound 60] | < 50 µM | < 50 µM
CCOc1ccc(-n2cc(Br)c3nccnc3c2=O)c(C)c1 [Compound 61] | < 50 µM | < 50 µM
CCOc1ccc(-n2cc(-c3cnn(C)c3)c3nccnc3c2=O)c(C)c1 [Compound 63] | < 50 µM | < 50 µM
O=C(c1ccccc1)n1cc(-c2ccc(=O)n(-c3ccccc3)c2)cn1 [Compound 68] | > 200 µM | > 200 µM
CS(=O)(=O)n1cc(-c2ccc(=O)n(-c3ccccc3)c2)cn1 [Compound 71] | > 200 µM | > 200 µM
CCOC(=O)n1cc(-c2ccc(=O)n(-c3ccccc3)c2)cn1 [Compound 73] | > 200 µM | < 50 µM

SMILES | IC50 [1] | EC50 [2]
CC(C)NC(=O)n1cc(-c2ccc(=O)n(-c3ccccc3)c2)cn1 [Compound 75] | 50 to 200 µM | 50 to 200 µM
Cc1ccc(=O)n(CCc2ccccc2)c1 [Compound 80] | > 200 µM | 50 to 200 µM
O=c1cc(O)c(-c2ccc(F)cc2)cn1-c1ccc(OC(F)(F)F)cc1 [Compound 86] | < 50 µM | 50 to 200 µM
O=c1cc(Cl)c(-c2ccc(F)cc2)cn1-c1ccc(OC(F)(F)F)cc1 [Compound 87] | < 50 µM | < 50 µM
O=C1CNCCN1CCOc1cc(=O)n(-c2ccc(OC(F)(F)F)cc2)cc1-c1ccc(F)cc1 [Compound 101] | 50 to 200 µM | > 200 µM
CCOc1ccc(-n2cc(-c3ccc(F)cc3)c(OC)cc2=O)c(C)c1 [Compound 119] | < 50 µM | < 50 µM
COc1cc(=O)n(-c2ccc(OC(F)(F)F)cc2)cc1-c1cnn(C)c1 [Compound 120] | < 50 µM | < 50 µM
Cn1cc(-c2cn(-c3ccc(OC(F)(F)F)cc3)c(=O)cc2NCc2ccccc2)cn1 [Compound 123] | < 50 µM | < 50 µM
CN(Cc1ccccc1)c1cc(=O)n(-c2ccc(OC(F)(F)F)cc2)cc1-c1cnn(C)c1 [Compound 126] | < 50 µM | < 50 µM
Cn1cc(-c2cn(-c3ccc(OC(F)(F)F)cc3)c(=O)cc2NCc2c(F)cccc2F)cn1 [Compound 133] | 50 to 200 µM | 50 to 200 µM
COc1ccc(CNc2cc(=O)n(-c3ccc(OC(F)(F)F)cc3)cc2-c2cnn(C)c2)cc1 [Compound 134] | < 50 µM | < 50 µM
Cn1cc(-c2cn(-c3ccc(OC(F)(F)F)cc3)c(=O)cc2Oc2ccccc2)cn1 [Compound 153] | < 50 µM | < 50 µM
CCOc1ccc(Oc2cc(=O)n(-c3ccc(OC(F)(F)F)cc3)cc2-c2cnn(C)c2)cc1Cl [Compound 155] | < 50 µM | –
CCOc1ccc(Oc2cc(=O)n(-c3ccc(OC(F)(F)F)cc3)cc2-c2cnn(C)c2)cc1C#N [Compound 157] | > 200 µM | < 50 µM
Cn1cc(-c2cn(-c3ccc(OC(F)(F)F)cc3)c(=O)cc2NCc2cccnc2)cn1 [Compound 160] | < 50 µM | 50 to 200 µM
Cn1cc(-c2cn(-c3ccc(OC(F)(F)F)cc3)c(=O)cc2NCc2ccccn2)cn1 [Compound 161] | < 50 µM | < 50 µM
CCOc1ccc(-n2cc(-c3cnn(C)c3)c(OC)cc2=O)c(C)c1 [Compound 162] | < 50 µM | < 50 µM
CCOc1ccc(-n2cc(-c3ccc(F)cc3)c(C)cc2=O)c(C)c1 [Compound 175] | < 50 µM | 50 to 200 µM
COc1cc(-n2cc(-c3ccc(F)cc3)c(C)cc2=O)cc(OC)c1OC [Compound 180] | < 50 µM | 50 to 200 µM
Cc1cc(=O)n(-c2cccc3c2OCO3)cc1-c1ccc(F)cc1 [Compound 184] | < 50 µM | 50 to 200 µM
Cc1cc(=O)n(-c2cccc3c2OCCO3)cc1-c1ccc(F)cc1 [Compound 185] | < 50 µM | 50 to 200 µM
Cc1cc(=O)n(-c2cccc(NC(N)=O)c2)cc1-c1ccc(F)cc1 [Compound 188] | < 50 µM | < 50 µM

SMILES | IC50 [1] | EC50 [2]
Cc1cc(=O)n(-c2cccc(C(N)=O)c2)cc1-c1ccc(F)cc1 [Compound 189] | > 200 µM | > 200 µM
Cc1cc(=O)n(-c2ccc(OC(F)(F)F)cc2)cc1-c1cccc(F)c1 [Compound 192] | < 50 µM | < 50 µM
Cc1cc(=O)n(-c2ccc(OC(F)(F)F)cc2)cc1-c1ccc(F)c(Cl)c1 [Compound 195] | < 50 µM | < 50 µM
Cc1cc(=O)n(-c2ccc(OC(F)(F)F)cc2)cc1-c1ccc(F)c(F)c1 [Compound 196] | < 50 µM | 50 to 200 µM
Cc1cc(=O)n(-c2ccc(OC(F)(F)F)cc2)cc1-c1ccc(Cl)c(F)c1 [Compound 198] | < 50 µM | 50 to 200 µM
CCOc1ccc(-n2cc(-c3cn(C)nc3C(F)(F)F)c(C)cc2=O)c(C)c1 [Compound 239] | < 50 µM | –
CCOc1ccc(-n2cc(-c3cnn(C)c3)c(Cl)cc2=O)c(C)c1 [Compound 538] | 50 to 200 µM | –
CCOc1ccc(-n2cc(-c3ccc(F)cc3)c(OCCOC)cc2=O)c(C)c1 [Compound 551] | < 50 µM | –
CCn1c(=O)oc2cc(-c3c[nH]c(=O)cc3C)ccc21 [Compound 564] | < 50 µM | –
CCn1cnc2c(=O)n(-c3ccc(OC(F)(F)F)cc3)cc(-c3cn[nH]c3)c21 [Compound 640] | > 200 µM | –
CCn1ncc2c(-c3cnn(C)c3)cn(-c3ccc(OC(F)(F)F)cc3)c(=O)c21 [Compound 658] | > 200 µM | –
Cc1cc(=O)[nH]cc1-c1ccc2c(c1)N(C)C(=O)CO2 [Compound 662] | > 200 µM | –
Cn1cc(-c2cn(-c3ccc(OC(F)(F)F)cc3)c(=O)cc2NCc2cccnn2)cn1 [Compound 664] | < 50 µM | –
CCOc1ccc(-n2cc(-c3cnn(C)c3)c(NCc3ccc(C#N)cc3)cc2=O)c(C)c1 [Compound 704] | – | < 50 µM
CCOc1ccc(-n2cc(-c3cnn(C)c3)c(N(C)Cc3ccccc3)cc2=O)c(C)c1 [Compound 705] | – | < 50 µM
CCOc1ccc(CNc2cc(=O)n(-c3ccc(OCC)cc3C)cc2-c2cnn(C)c2)c(C)c1 [Compound 706] | – | < 50 µM
CCOc1ccc(-n2cc(-c3cnn(C)c3)c(NCc3ccc(OCCOC)cc3)cc2=O)c(C)c1 [Compound 707] | – | < 50 µM
Cn1cc(-c2cc(=O)n(-c3ccc(OC(F)(F)F)cc3)cc2-c2cnn(C)c2)cn1 [Compound 708] | – | 50 to 200 µM
O=c1ccc(C(F)(F)F)cn1-c1ccc(NCCN2CCN(CCO)CC2)cc1Cl [Compound 709] | – | 50 to 200 µM
Cc1nc2ccn(-c3ccc(OC(F)(F)F)cc3)c(=O)c2s1 [compound 585] | – | > 200 µM
